What was measured:
[1] = biological target: T1, Receptor-interacting serine/threonine-protein kinase 1 (Homo sapiens) (UniProt Q13546); test: Selectivity interaction (Kinase panel (Eurofins)) EUB0001564a RIPK1; settings: at 1 µM
T1 sequence (whole entry): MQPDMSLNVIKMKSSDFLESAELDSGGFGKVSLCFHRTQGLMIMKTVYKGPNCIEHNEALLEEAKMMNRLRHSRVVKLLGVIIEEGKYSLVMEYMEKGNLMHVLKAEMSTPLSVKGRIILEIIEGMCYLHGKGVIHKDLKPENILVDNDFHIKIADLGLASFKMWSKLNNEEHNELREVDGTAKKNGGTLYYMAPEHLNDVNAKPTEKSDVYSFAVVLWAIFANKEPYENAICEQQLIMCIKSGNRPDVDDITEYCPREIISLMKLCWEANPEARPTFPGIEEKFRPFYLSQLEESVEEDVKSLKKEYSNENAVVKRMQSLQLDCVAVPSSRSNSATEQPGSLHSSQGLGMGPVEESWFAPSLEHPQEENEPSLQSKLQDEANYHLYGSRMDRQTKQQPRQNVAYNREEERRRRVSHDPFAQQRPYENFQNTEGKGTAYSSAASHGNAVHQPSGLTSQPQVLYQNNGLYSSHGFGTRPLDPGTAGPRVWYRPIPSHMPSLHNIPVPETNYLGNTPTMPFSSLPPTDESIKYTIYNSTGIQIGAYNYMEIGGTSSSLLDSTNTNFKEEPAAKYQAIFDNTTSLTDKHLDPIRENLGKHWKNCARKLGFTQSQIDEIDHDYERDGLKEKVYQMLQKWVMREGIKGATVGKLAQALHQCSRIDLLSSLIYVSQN

[2] = biological target: Histone-lysine N-methyltransferase, H3 lysine-36 specific (Homo sapiens) (UniProt Q96L73); test: Selectivity interaction (Methyltransferase screen (radiometric assays, panel of 8 PRMTs, 21 protein lysine methyltransferases, 3 DNA methyltransferases, and one RNA methyltransferase)) EUB0000272b NSD1
[3] = biological target: Ribosomal protein S6 kinase alpha-5 (Homo sapiens) (UniProt O75582); test: Selectivity interaction (Ambit KINOMEscan and KiNATiv profiling in Jurkat cells) EUB0000090b RPS6KA5; assay type: cell-based; settings: at 1 µM
[4] = biological target: Dual specificity testis-specific protein kinase 1 (Homo sapiens) (UniProt Q15569); test: Selectivity interaction (KinomeScan (DiscoverX)) EUB0000655a TESK1; settings: at 10 µM
[5] = biological target: T2, Serine/threonine-protein kinase 17A (Homo sapiens) (UniProt Q9UEE5); test: Selectivity interaction (KinomeScan (DiscoverX)) EUB0000607a STK17A; settings: at 10 µM
T2 sequence (whole entry): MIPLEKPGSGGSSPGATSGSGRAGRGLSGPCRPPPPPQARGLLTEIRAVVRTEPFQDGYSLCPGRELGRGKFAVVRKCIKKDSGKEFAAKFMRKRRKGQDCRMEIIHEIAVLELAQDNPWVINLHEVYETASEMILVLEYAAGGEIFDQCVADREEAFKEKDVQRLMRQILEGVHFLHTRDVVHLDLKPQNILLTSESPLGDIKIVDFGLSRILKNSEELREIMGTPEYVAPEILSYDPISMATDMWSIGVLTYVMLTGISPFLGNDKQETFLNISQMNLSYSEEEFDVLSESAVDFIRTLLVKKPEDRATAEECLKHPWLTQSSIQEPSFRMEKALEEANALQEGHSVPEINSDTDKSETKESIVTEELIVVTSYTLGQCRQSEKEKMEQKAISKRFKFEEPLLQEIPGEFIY

[6] = tested on: Phosphatidylinositol 4,5-bisphosphate 3-kinase catalytic subunit alpha isoform (Homo sapiens), P42336 [E542K]; settings: at 10 µM
[7] = biological target: T3, MAP/microtubule affinity-regulating kinase 4 (Homo sapiens) (UniProt Q96L34); test: Selectivity interaction (Kinase panel (KiNativ target engagement assay in Jurkat cells)) EUB0001635a MARK4; assay type: cell-based; settings: Selectivity number of off-targets 0.0, Selectivity number of targets 233.0, Source Knowledge https://www.sciencedirect.com/science/article/pii/S2451945619300674?via%3Dihub, at 1 µM
T3 sequence (whole entry): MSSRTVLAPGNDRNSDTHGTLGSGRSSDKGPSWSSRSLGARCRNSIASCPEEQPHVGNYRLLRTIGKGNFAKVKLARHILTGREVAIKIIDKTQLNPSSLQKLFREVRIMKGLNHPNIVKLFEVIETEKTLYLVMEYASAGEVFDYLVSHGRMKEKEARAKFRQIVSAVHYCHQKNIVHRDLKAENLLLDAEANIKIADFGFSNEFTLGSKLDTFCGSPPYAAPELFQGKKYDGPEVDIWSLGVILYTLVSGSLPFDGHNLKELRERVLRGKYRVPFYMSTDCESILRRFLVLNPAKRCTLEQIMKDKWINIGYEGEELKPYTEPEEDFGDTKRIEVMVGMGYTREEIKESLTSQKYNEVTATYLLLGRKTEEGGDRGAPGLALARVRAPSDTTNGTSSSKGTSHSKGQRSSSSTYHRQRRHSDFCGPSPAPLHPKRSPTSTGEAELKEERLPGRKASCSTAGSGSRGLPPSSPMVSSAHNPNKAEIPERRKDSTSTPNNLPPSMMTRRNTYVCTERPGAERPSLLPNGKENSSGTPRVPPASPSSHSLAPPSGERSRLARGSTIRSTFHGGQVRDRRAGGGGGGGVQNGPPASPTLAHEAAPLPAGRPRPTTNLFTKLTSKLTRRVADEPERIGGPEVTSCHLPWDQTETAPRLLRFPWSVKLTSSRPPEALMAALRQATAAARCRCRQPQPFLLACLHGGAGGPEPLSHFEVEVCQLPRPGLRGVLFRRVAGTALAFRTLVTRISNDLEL

[8] = biological target: T4, Phosphatidylinositol 5-phosphate 4-kinase type-2 gamma (Homo sapiens) (UniProt Q8TBX8); test: Selectivity interaction (Kinase panel (KiNativ target engagement assay in Jurkat cells)) EUB0001635a PIP4K2C; assay type: cell-based; settings: Selectivity number of off-targets 0.0, Selectivity number of targets 233.0, Source Knowledge https://www.sciencedirect.com/science/article/pii/S2451945619300674?via%3Dihub, at 1 µM
T4 sequence (whole entry): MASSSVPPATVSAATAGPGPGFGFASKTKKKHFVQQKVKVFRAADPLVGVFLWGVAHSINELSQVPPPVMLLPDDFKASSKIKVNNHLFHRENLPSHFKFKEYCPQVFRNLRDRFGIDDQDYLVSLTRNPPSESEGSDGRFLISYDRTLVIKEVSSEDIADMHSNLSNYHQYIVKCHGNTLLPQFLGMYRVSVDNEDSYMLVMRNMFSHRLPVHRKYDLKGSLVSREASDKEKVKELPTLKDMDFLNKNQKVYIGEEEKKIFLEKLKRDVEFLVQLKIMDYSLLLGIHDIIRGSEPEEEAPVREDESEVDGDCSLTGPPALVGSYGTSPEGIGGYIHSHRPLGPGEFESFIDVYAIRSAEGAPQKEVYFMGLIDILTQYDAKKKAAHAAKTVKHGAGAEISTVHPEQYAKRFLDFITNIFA

[9] = biological target: Serine/threonine-protein kinase WNK4 (Homo sapiens) (UniProt Q96J92); test: Selectivity interaction (KinomeScan (DiscoverX)) EUB0000229b WNK4; settings: at 10 µM
Serine/threonine-protein kinase WNK4 (Homo sapiens), sequence (Q96J92 whole entry): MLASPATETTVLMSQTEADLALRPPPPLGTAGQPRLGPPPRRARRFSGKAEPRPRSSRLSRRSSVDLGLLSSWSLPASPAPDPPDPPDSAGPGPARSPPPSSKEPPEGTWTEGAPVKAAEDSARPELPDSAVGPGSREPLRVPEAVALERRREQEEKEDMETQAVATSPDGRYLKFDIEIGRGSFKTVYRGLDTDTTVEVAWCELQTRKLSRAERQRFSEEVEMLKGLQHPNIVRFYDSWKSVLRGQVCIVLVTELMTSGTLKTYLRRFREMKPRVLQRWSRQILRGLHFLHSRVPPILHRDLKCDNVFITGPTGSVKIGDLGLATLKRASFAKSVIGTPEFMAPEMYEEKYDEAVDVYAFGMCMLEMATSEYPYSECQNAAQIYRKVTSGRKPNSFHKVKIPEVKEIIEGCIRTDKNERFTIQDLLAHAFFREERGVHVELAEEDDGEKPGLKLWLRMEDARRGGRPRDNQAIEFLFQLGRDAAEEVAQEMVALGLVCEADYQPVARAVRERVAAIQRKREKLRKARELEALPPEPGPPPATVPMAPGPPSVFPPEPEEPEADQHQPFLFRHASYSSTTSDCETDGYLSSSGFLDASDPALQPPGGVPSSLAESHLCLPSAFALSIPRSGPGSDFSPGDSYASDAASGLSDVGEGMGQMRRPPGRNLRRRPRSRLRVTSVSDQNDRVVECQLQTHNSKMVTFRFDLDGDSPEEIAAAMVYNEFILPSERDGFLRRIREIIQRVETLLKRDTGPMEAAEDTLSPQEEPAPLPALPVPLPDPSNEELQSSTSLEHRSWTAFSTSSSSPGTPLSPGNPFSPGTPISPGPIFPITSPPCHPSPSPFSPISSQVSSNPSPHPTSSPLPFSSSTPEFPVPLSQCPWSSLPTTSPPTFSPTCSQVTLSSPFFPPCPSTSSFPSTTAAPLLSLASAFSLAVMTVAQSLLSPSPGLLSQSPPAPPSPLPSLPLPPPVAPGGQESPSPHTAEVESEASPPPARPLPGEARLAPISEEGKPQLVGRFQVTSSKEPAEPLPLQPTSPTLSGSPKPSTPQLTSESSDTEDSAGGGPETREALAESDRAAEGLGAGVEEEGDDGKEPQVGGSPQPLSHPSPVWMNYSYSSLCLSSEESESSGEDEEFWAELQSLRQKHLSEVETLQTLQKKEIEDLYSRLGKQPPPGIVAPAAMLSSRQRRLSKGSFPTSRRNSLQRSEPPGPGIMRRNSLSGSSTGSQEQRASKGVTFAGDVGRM

Histone-lysine N-methyltransferase, H3 lysine-36 specific (Homo sapiens), sequence (Q96L73 whole entry): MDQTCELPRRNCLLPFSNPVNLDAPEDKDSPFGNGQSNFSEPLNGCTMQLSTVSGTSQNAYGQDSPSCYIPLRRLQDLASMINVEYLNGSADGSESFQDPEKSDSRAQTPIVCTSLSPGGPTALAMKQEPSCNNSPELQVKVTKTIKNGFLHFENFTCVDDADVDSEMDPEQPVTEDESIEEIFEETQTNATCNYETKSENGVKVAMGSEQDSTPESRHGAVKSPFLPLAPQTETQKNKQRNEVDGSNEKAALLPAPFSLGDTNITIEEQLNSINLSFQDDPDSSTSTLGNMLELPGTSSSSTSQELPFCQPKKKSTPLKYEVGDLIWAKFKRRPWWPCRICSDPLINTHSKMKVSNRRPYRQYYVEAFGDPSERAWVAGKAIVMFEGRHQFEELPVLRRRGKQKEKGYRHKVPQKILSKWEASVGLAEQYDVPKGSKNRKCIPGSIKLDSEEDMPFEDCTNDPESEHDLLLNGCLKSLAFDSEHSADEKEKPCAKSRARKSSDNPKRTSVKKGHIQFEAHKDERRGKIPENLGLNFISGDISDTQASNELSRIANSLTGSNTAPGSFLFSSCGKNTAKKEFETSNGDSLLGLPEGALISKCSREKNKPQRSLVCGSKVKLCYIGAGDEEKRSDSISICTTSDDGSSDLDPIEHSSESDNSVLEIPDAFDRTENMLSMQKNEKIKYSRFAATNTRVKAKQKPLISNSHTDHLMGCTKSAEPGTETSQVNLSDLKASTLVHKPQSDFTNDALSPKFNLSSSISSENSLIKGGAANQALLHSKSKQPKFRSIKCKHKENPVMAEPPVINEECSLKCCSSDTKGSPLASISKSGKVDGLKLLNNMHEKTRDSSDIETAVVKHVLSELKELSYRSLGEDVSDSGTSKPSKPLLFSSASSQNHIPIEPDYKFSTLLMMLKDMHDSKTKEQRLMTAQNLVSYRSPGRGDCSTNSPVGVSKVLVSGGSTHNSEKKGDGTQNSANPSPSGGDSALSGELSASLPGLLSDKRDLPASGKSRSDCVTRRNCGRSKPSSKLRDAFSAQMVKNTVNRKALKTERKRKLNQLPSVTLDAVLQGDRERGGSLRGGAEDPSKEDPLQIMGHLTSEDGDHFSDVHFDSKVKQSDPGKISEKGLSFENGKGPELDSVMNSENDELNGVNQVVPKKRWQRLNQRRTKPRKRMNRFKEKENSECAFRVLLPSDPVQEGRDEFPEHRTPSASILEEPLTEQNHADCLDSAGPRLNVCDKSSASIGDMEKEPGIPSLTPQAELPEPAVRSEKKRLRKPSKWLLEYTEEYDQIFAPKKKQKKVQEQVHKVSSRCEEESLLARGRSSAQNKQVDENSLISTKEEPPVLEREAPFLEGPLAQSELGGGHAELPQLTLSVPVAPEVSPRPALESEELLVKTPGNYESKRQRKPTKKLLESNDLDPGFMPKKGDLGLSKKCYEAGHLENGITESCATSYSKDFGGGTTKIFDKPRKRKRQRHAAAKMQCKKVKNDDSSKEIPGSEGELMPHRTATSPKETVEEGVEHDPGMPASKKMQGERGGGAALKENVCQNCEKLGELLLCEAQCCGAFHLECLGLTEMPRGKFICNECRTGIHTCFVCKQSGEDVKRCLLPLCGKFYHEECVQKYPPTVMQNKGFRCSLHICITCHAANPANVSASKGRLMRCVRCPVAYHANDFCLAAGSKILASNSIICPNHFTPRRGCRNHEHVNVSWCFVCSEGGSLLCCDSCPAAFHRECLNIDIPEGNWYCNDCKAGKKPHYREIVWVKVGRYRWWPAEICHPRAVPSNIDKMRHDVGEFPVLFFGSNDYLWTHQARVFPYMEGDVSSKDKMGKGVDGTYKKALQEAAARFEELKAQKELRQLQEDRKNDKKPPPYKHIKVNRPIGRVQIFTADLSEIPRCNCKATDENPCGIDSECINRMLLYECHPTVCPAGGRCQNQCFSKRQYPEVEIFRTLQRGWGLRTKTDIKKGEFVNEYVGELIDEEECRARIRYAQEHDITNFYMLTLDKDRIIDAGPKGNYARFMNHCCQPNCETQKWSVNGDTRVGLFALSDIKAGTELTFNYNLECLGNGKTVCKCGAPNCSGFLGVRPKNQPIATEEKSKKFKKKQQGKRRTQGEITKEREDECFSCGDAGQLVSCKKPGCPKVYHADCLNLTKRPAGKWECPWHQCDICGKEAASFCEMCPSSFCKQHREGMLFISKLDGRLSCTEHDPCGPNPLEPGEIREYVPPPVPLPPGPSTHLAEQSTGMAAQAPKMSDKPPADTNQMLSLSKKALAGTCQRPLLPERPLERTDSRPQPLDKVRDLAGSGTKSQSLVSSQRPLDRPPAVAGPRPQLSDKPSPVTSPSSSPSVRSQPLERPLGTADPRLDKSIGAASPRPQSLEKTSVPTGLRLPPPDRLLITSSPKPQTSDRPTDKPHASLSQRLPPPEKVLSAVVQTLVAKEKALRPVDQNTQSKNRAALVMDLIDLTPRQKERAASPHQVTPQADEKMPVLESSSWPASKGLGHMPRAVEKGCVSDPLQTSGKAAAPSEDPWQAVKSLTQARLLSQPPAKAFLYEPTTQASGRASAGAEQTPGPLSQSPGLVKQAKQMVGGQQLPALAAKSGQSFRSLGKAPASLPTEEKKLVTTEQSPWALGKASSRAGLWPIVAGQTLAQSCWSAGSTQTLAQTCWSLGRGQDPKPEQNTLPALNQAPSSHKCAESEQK
Ribosomal protein S6 kinase alpha-5 (Homo sapiens), sequence (O75582 whole entry, looked up): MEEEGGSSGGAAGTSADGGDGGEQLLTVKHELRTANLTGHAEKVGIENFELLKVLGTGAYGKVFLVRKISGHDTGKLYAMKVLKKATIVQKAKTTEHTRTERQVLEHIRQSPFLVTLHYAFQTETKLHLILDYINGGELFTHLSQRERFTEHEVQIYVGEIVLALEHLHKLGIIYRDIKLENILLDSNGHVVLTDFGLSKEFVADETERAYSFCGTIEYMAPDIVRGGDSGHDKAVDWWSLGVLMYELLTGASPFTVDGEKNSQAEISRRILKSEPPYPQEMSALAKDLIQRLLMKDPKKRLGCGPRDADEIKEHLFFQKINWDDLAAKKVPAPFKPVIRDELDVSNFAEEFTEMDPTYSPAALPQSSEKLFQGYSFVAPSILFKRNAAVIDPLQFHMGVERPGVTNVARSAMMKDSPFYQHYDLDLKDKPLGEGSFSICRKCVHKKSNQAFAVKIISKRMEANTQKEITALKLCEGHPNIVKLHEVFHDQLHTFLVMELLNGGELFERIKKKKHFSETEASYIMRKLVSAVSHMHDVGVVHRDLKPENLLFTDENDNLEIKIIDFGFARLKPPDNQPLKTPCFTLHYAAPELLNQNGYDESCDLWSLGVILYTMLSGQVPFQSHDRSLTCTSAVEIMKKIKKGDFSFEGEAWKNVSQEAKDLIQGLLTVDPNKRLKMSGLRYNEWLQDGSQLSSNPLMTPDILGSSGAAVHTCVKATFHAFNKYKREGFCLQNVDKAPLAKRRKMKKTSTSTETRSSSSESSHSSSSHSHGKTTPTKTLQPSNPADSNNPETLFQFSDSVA

CC[C@@H](Nc1c(C#N)c(-c2ccc(-c3cccc(C)c3F)cc2)nc2cnccc12)C(=O)O [BAY-091]
% of inhibition [1]: 21.2%

Cc1cc(C)cc([C@H]2c3cc(C)ccc3NC(=O)CN2C(=O)c2ccc(Br)s2)c1
% of activity ([2]; at 1 µM): 100%
% of activity ([2]; at 10 µM): 102%

CN(C)C/C=C/C(=O)Nc1ccc(C(=O)N2CCCC(Nc3ncc(Cl)c(-c4c[nH]c5ccccc45)n3)C2)cc1 (stereo not given)
% of control [3]: 86%

CN(C)CCOc1ccc(-c2nc(-c3ccncc3)c(-c3ccc4c(c3)CC/C4=N\O)[nH]2)cc1
% of control [4]: 76%

CNC(=O)Nc1ccc(-c2nc(N3CC4CCC(C3)O4)c3cnn(C4CCC5(CC4)OCCO5)c3n2)cc1
% of control [5]: 100%
% of control [6]: 14%

C=CC(=O)Nc1ccc(C(=O)Nc2[nH]nc3c2CN(C(=O)N[C@H](CN(C)C)c2ccccc2)C3(C)C)cc1
% of engagement [7]: 37%
% of engagement [8]: -6.5%

COc1cc(N(C)c2ccnc3ccc(C(F)(F)F)cc23)cc(OC)c1OC
% binding [9]: 100%

— ChEMBL document CHEMBL5465560, “Selectivity Literature for EUbOPEN Chemogenomic Library” (2024)
